The values that follow come from the supplement of paper PMC10307832.

Test in all cases: relative viability (nuclei count vs DMSO), 5 days (fraction); higher = more cells survive
Compound in the assay “Ponatinib + Pictilisib”: Cc1ccc(C(=O)Nc2ccc(CN3CCN(C)CC3)c(C(F)(F)F)c2)cc1C#Cc1cnc2cccnn12 [Ponatinib] + CS(=O)(=O)N1CCN(Cc2cc3nc(-c4cccc5[nH]ncc45)nc(N4CCOCC4)c3s2)CC1 [Pictilisib] (partner 1 µM)
A digest of the protocol:
(§1)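 For relative viability, nuclei counts in treated wells were divided by those in vehicle wells. Lung cancer cell lines had been pin-tool dosed in 1536-well plates the day after seeding and cultured for 5 days, then fixed and stained in one step (final 0.05% Triton X-100, 1% formaldehyde, 1 ug/ml Hoechst) and imaged at 4×. Doses were one drug alone or a fixed anchor-drug dose plus five library-drug doses (not always all listed) in √10 steps, and values are duplicate-plate medians.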

Compound in the assay “Pazopanib + Vorinostat”: Cc1ccc(Nc2nccc(N(C)c3ccc4c(C)n(C)nc4c3)n2)cc1S(N)(=O)=O [Pazopanib] + O=C(CCCCCCC(=O)Nc1ccccc1)NO [Vorinostat] (partner 1 µM)
A digest of the protocol:
as §1

Compound in the assay “Pazopanib + Foretinib”: Cc1ccc(Nc2nccc(N(C)c3ccc4c(C)n(C)nc4c3)n2)cc1S(N)(=O)=O [Pazopanib] + COc1cc2c(Oc3ccc(NC(=O)C4(C(=O)Nc5ccc(F)cc5)CC4)cc3F)ccnc2cc1OCCCN1CCOCC1 [Foretinib] (partner 0.25 µM)
A digest of the protocol:
as §1

Compound in the assay “Pazopanib + Lapatinib”: Cc1ccc(Nc2nccc(N(C)c3ccc4c(C)n(C)nc4c3)n2)cc1S(N)(=O)=O [Pazopanib] + CS(=O)(=O)CCNCc1ccc(-c2ccc3ncnc(Nc4ccc(OCc5cccc(F)c5)c(Cl)c4)c3c2)o1 [Lapatinib] (partner 2 µM)
A digest of the protocol:
as §1

As to UMC-11, the relative viability came to 0.809 in the assay with Ponatinib + Pictilisib (first compound 0.002 µM); 0.933 in the assay with Ponatinib + Pictilisib (first compound 0.006325 µM); 0.766 with Ponatinib + Pictilisib (first compound 0.06325 µM); 0.831 with Ponatinib + Pictilisib (first compound 0.2 µM); 0.353 with Pazopanib + Vorinostat (first compound 0.01 µM); 0.306 in the assay with Pazopanib + Vorinostat (first compound 0.03162 µM). For the same cell line, the relative viability turned out to be 0.368 with Pazopanib + Vorinostat (first compound 0.1 µM); 0.371 with Pazopanib + Vorinostat (first compound 0.3162 µM); 0.446 with Pazopanib + Vorinostat (first compound 1 µM); 0.958 with Pazopanib + Foretinib (first compound 0.01 µM); 1.16 with Pazopanib + Foretinib (first compound 0.03162 µM); 1.19 with Pazopanib + Foretinib (first compound 0.1 µM). The relative viability with Pazopanib + Foretinib (first compound 0.3162 µM) came out at 1.07; with Pazopanib + Foretinib (first compound 1 µM), 1.13; with Pazopanib + Lapatinib (first compound 0.01 µM) it was 0.807; with Pazopanib + Lapatinib (first compound 0.03162 µM) it was 1.03; with Pazopanib + Lapatinib (first compound 0.1 µM), 0.939; with Pazopanib + Lapatinib (first compound 0.3162 µM) it was 1.01. Further, the relative viability with Pazopanib + Lapatinib (first compound 1 µM) worked out at 1.12.
